Counter-ions that a name gives are not always drawn. Like-named read-outs stand apart in the source and are kept apart here.
Biological target: T1, dopamine receptor (Bos taurus, UniProt P20288)
T1 construct: from tissue
Test: 3H-haloperidol receptor binding assay (HRBA)
Settings: for inhibition at 0.01 µM / inhibition at 0.1 µM / inhibition at 0.001 µM: read-out: inhibition of 3H-haloperidol binding
Text: The compounds of this invention are useful because of their valuable pharmacological properties. […] As with other known neuroleptics, the compounds of this invention readily displace ^3 H-haloperidol from dopamine receptor binding sights in the ^3 H-haloperidol receptor binding assay (HRBA). […] The HRBA screen is described by I. Creese, D. R. Burt and S. H. Snyder, Science 142: 480 (1976) and by B. Seeman, T. Lee, M. Chani-Wong and K. Wong, Nature 261: 717 […].

T1 sequence (P20288 whole entry): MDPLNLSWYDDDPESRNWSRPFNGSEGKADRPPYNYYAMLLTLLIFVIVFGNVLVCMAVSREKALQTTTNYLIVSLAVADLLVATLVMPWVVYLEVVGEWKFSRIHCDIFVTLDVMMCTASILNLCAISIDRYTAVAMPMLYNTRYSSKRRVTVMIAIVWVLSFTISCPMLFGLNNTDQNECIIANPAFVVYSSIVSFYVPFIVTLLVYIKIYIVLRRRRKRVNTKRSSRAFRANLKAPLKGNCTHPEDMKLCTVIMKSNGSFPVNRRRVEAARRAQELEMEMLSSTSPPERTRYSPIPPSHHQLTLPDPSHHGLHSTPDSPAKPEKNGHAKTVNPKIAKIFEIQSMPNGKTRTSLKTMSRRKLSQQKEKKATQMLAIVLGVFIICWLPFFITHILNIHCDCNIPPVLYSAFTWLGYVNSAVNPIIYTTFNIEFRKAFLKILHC

| inhibition at 0.01 µM (10 n moles concentration) | inhibition at 0.1 µM (100 n moles concentration) | Compound | inhibition at 0.01 µM | inhibition at 0.1 µM | other results |
| --- | --- | --- | --- | --- | --- |
| ~43% |  | Fc1ccc(OC2=CCN(CCCN(c3ccc(F)cc3)c3ccc(F)cc3)CC2)cc1 [Example 25, 4-(4-Fluorophenoxy)-N,N-bis(4-fluorophenyl)-1,2,3,6-tetrahydro-1-pyridinepropanamine-d-2,3-dihydroxybutanedioate] |  |  | inhibition of 3H-haloperidol binding (1 n mole concentration): no inhibition |
|  |  | O=c1[nH]c2ccccc2n1C1CCN(CCCN(c2ccccc2)c2ccc([N+](=O)[O-])cc2)CC1 [Example 10, 1,3-Dihydro-1-[1-(3-[(4-nitrophenyl)phenylamino]propyl)-4-piperidinyl]-2H-benzimidazol-2-one hydrochloride] | ~17% | ~75% |  |
|  | ~12% | Fc1ccc(N2CCN(CCCN(c3ccccc3)c3ccccc3)CC2)cc1 [Example 31, 4-(4-Fluorophenyl)-N,N-diphenyl-1-piperazinepropanamine] |  |  | inhibition of 3H-haloperidol binding (10 n moles concentration): no inhibition |
|  |  | Fc1cccc(C2=CCN(CCCN(c3ccccc3)c3ccccc3)CC2)c1.O=C(O)C(=O)O [Example 40, 4-(3-Fluorophenyl)-1,2,3,6-tetrahydro-N,N-diphenyl-1-pyridinepropanamine ethanedioate] |  | ~23% | inhibition of 3H-haloperidol binding (10 n moles concentration): no inhibition |
| ~28% | ~89% | Fc1ccc(N(CCCN2CCC(n3c(=S)[nH]c4ccccc43)CC2)c2ccc(F)cc2)cc1 [Example 8, 1-[1-(3-[Bis(4-fluorophenyl)amino]propyl)-4-piperidinyl]-1,3-dihydro-2H-benzimidazole-2-thione] |  |  |  |
|  |  | Cc1ccc(N2CNC(=O)C23CCN(CCCN(c2ccccc2)c2ccccc2)CC3)cc1 [Example 3, 8-[3-(Diphenylamino)propyl]-1-(4-methylphenyl)-1,3,8-triazaspiro[4,5]decan-4-one] | ~71% | ~87% |  |
| ~6% | ~24% | FC(F)(F)c1cccc(OC2=CCN(CCCN(c3ccccc3)c3ccccc3)CC2)c1 [Example 23, 3,6-Dihydro-N,N-diphenyl-4-[(3-trifluoromethyl)phenoxy]-1(2H)-pyridinepropanamine ethanedioate] |  |  |  |
|  |  | O=C1NCN(c2ccc(F)cc2)C12CCN(CCCN(c1ccccc1)c1ccccc1)CC2 [Example 2, 8-[3-(Diphenylamino)propyl]-1-(4-fluorophenyl)-1,3,8-triazaspiro[4,5]decan-4-one] | ~76% | ~85% |  |
|  |  | OCCN1CCN(CCCN(c2ccc(F)cc2)c2ccc(F)cc2)CC1 [Example 36, 4-[3-[Bis(4-fluorophenyl)amino]propyl]-1-piperazineethanol dihydrochloride] | ~21% | ~62% |  |
| ~25% | ~84% | Cc1cccc(C2CCN(CCCN(c3ccccc3)c3ccccc3)CC2)c1 [Example 41, N,N-diphenyl-4-[3-methylphenyl]-1-piperidinepropanamine butenedioate] |  |  |  |
| ~92% | ~100% | O=c1[nH]c2ccccc2n1C1CCN(CCCN(c2ccc(F)cc2)c2ccccc2F)CC1 [Example 14, 1,3-Dihydro-1-[1-[3-[(4-fluorophenyl)-(2-fluorophenyl)amino]propyl]-4-piperidinyl]-2H-benzimidazol-2-one] |  |  | inhibition at 0.001 µM (1 n mole concentration): ~56% |
|  |  | CCCSc1ccccc1N1CCN(CCCN(c2ccccc2)c2ccccc2)CC1 [Example 34, N,N-diphenyl-4-[2-(propylthio)phenyl]-1-piperazinepropanamine ethanedioate] | ~6% | ~64% |  |
| ~8% | ~48% | C1=C(Oc2ccccc2)CCN(CCCN(c2ccccc2)c2ccccc2)C1 [Example 21, 3,6-Dihydro-4-phenoxy-N,N-diphenyl-1(2H)-pyridinepropanamine ethanedioate.] |  |  |  |
| ~3% | ~12% | c1ccc(N(CCCNC2=NC3CCC2CC3)c2ccccc2)cc1 [Example 46, N'-2-azabicyclo[2,2,2]-oct-2-en-3-yl-N,N-diphenyl-1,3-propanediamine] |  |  |  |
|  |  | COc1ccccc1N1CCN(CCCN(c2ccc(F)cc2)c2ccc(F)cc2)CC1 [Example 35, N,N-bis(4-fluorophenyl)-4-(2-methoxyphenyl)-1-piperazinepropanamine dihydrochloride] | ~28% | ~79% |  |
| ~85% | ~100% | Cc1cc2[nH]c(=O)n(C3CCN(CCCN(c4ccc(F)cc4)c4ccc(F)cc4)CC3)c2cc1C [Example 17, 1-[1-[3-[Bis-(4-fluorophenyl)amino]propyl]-4-piperidyl]-1,3-dihydro-5,6-dimethyl-2H-benzimidazol-2-one] |  |  | inhibition at 0.001 µM (1 n mole concentration): ~29% |
| ~6% | ~60% | Cc1cc2c(cc1C)n(C1CCN(CCCN(c3ccccc3)c3ccccc3)CC1)c(=O)n2C [Example 16, 1-[1-([3-Diphenylamino]propyl)-4-piperidinyl]-1,3-dihydro-3,5,6-trimethyl-2H-benzimidazol-2-one butenedioate] |  |  |  |

| inhibition at 0.01 µM (10 n moles concentration) | inhibition at 0.1 µM (100 n moles concentration) | Compound | inhibition at 0.01 µM | inhibition at 0.1 µM | other results |
| --- | --- | --- | --- | --- | --- |
|  |  | CC(C)Sc1ccccc1N1CCN(CCCN(c2ccccc2)c2ccccc2)CC1.Cl [Example 33, 4-[2-[(1-Methylethyl)thio]phenyl]-N,N-diphenyl-1-piperazinepropanamine hydrochloride] |  | ~28% | inhibition of 3H-haloperidol binding (10 n moles concentration): no inhibition |
|  |  | Cl.Cl.Fc1ccc(N(CCCN2CCN(c3ccccc3)CC2)c2ccc(F)cc2)cc1 [Example 37, N,N-bis(4-fluorophenyl)-4-phenyl-1-piperazinepropanamine dihydrochloride] |  | ~37% | inhibition of 3H-haloperidol binding (10 n moles concentration): no inhibition |
| ~61% | ~91% | Cc1cccc(N(CCCN2CCC(n3c(=O)[nH]c4ccccc43)CC2)c2ccccc2)c1 [Example 11, 1,3-Dihydro-1-[1-(3-[(3-methylphenyl)phenylamino]propyl-4-piperidinyl]-2H-benzimidazol-2-one hydrochloride] |  |  |  |
|  |  | OC1(c2cccc(F)c2)CCN(CCCN(c2ccccc2)c2ccccc2)CC1 [Example 18, 1-[3-(Diphenylamino)propyl]-4-(3-fluorophenyl)-4-piperidinol ethanedioate] | ~23% | ~83% |  |
|  |  | COc1ccc(N2CNC(=O)C23CCN(CCCN(c2ccccc2)c2ccccc2)CC3)cc1 [Example 4, 8-[3-(Diphenylamino)propyl]-1-(4-methoxyphenyl)-1,3,8-triazaspiro[4,5]decan-4-one] | ~67% | ~98% |  |
|  |  | Fc1ccc(NC2CCN(CCCN(c3ccccc3)c3ccccc3)CC2)cc1 [Example 42, 4-[(4-Fluorophenyl)amino]-N,N-diphenyl-1-piperidinepropanamine ethanedioate] | ~26% | ~90% |  |
|  |  | OC1(c2ccc(F)cc2)CCN(CCCN(c2ccc(F)cc2)c2ccc(F)cc2)CC1 [Example 19, 4-(4-Fluorophenyl)-1-(3-[bis(4-fluorophenyl)amino]propyl)-4-piperidinol hydrochloride] | ~82% |  | inhibition at 0.001 µM: ~25% |
|  |  | O=C1NCN(c2ccccc2)C12CCN(CCCN(c1ccc(F)cc1)c1ccc(F)cc1)CC2 [Example 1, 8-[3-(Bis-[4-fluorophenyl]amino)propyl]-1-phenyl-1,3,8-triazaspiro[4,5]decan-4-one hydrobromide] | ~73% | ~77% |  |
| ~74% | ~100% | O=c1[nH]c2ccccc2n1C1CCN(CCCN(c2ccccc2)c2ccc(F)cc2)CC1 [Example 15, 1,3-Dihydro-1-[1-[3-[(4-fluorophenyl)phenylamino]propyl]-4-piperidinyl]-2H-benzimidazol-2-one] |  |  |  |
|  |  | Clc1ccc(OC2=CCN(CCCN(c3ccccc3)c3ccccc3)CC2)cc1Cl.O=C(O)C(=O)O [Example 26, 4-(3,4-Dichlorophenoxy)-3,6-dihydro-N,N-diphenyl-1(2H)-pyridinepropanamine ethanedioate] |  | ~26% | inhibition of 3H-haloperidol binding (10 n moles concentration): no inhibition |
|  |  | c1ccc(CN2CCN(CCCN(c3ccccc3)c3ccccc3)CC2)cc1 [Example 32, N,N-diphenyl-4-(phenylmethyl)-1-piperazinepropanamine ethanedioate] | ~16% | ~33% |  |
|  |  | O=c1[nH]c2ccccc2n1C1=CCN(CCCN(c2ccc(F)cc2)c2ccc(F)cc2)CC1 [Example 7, 1-[1-[3-[Bis(4-fluorophenyl)amino]propyl]-1,2,3,6-tetrahydro-4-pyridinyl]-1,3-dihydro-2H-benzimidazol-2-one hydrochloride] | ~22% | ~67% |  |
|  |  | O=c1[nH]c2ccccc2n1C1CCN(CCCN(c2ccccc2)c2ccccc2)CC1 [Example 9, 1-[1-(3-(Diphenylamino]propyl)-4-piperidinyl]-1,3-dihydro-2H-benzimidazol-2-one hydrochloride] | ~68% | ~91% |  |
|  | ~18% | OC(c1ccccc1)C1CCN(CCCN(c2ccccc2)c2ccccc2)CC1 (stereo not drawn) [Example 43, 1-[3-(Diphenylamino)propyl]-alpha-phenyl-4-piperidine methanol.] |  |  | inhibition of 3H-haloperidol binding (10 n moles concentration): no inhibition |
| ~10% | ~26% | c1ccc(N(CCCN2CCC3(CC2)OCCO3)c2ccccc2)cc1 [Example 45, N,N-diphenyl-1,4-dioxo-8-azaspiro[4,5]decane-8-propanamine ethanedioate.] |  |  |  |
|  |  | O=C(c1ccc(Cl)cc1)C1CCN(CCCN(c2ccc(F)cc2)c2ccc(F)cc2)CC1 [Example 44, [1-[3-[Bis(4-fluorophenyl)amino]propyl]-4-piperidinyl]-(4-chlorophenyl)methanone ethanedioate] | ~8% | ~69% |  |
